row,logP,SMILES
1,6.51,Clc1cc(Cl)c2c(oc3ccc(Cl)c(Cl)c32)c1Cl
2,6.34,Clc1cc(Cl)c2c(c1)oc1cc(Cl)cc(Cl)c12
3,6.31,Clc1cc2oc3c(Cl)c(Cl)ccc3c2cc1Cl
4,6.23,Clc1ccc2c(c1)oc1c(Cl)c(Cl)cc(Cl)c12
5,6.25,Clc1cc(Cl)c2oc3c(Cl)c(Cl)ccc3c2c1
6,6.59,Clc1cc(Cl)c2oc3c(Cl)ccc(Cl)c3c2c1Cl
7,6.23,Clc1cc2oc3ccc(Cl)c(Cl)c3c2cc1Cl
8,6.24,Clc1cc(Cl)c2oc3c(Cl)c(Cl)cc(Cl)c3c2c1
9,6.31,Clc1cc(Cl)c2c(oc3c(Cl)cccc32)c1Cl
10,6.11,Clc1cc2c(oc3c(Cl)cccc32)c(Cl)c1Cl
11,6.59,Clc1cc(Cl)c2oc3c(Cl)c(Cl)c(Cl)cc3c2c1

row,SMILES,logP
1,Clc1cc(Cl)c2c(c1)oc1c(Cl)cc(Cl)cc12,6.37
2,Clc1c(Cl)c(Cl)c2c(oc3ccccc32)c1Cl,6.17
3,Clc1cc2c(oc3c(Cl)c(Cl)c(Cl)c(Cl)c32)c(Cl)c1Cl,7.92
4,Clc1ccc2oc3c(Cl)c(Cl)c(Cl)c(Cl)c3c2c1,6.79
5,Clc1cc2oc3c(Cl)c(Cl)c(Cl)cc3c2cc1Cl,6.92
6,Clc1cc2oc3cc(Cl)c(Cl)c(Cl)c3c2cc1Cl,6.79
7,Clc1cc(Cl)c2oc3cc(Cl)c(Cl)cc3c2c1,6.73
8,Clc1cc2oc3cc(Cl)c(Cl)cc3c2cc1Cl,6.53

# Source: the OPERA property sets (Mansouri et al. 2018)
